# Data published in patent publication US6214805A, “RNase L activators and antisense oligonucleotides effective to treat RSV infections” (priority 1997, dated 2001).
# pEC50, pIC50: −log10 of the molar value. Where two headings read alike, the source gives them in different places.
# Columns and labels:
# [1] = system: RSV strain A2; test: CPE inhibition assay in HEp-2 cells; format: cell-based, Respiratory syncytial virus; conditions: Table 10, CPE; B.I.D. 3 days; HEp2; read-out: EC50
# Protocol: The CPE inhibition assay used in this study was performed as described by Sidwell and Huffman (Sidwell et al., 1971, Appl. Microbiol. 22:7979-7801) with slight modifications. Varying concentrations of test compounds were added to each plate containing near confluent cell monolayers (1×10^5 cells/well) followed immediately by the addition of virus at a multiplicity of infection (MOI)=0.01, and then incubated at 37° C. […] All compounds were assayed for virus inhibition in quadruplicate and for cytotoxicity in duplicate. For each compound, two wells were set aside as uninfected, untreated cell controls per test and four wells per test received virus only and represented controls for virus replication. […] For all CPE-based assays, the 50% effective concentration (EC50) was calculated by regression analysis using the means of the CPE ratings at each concentration of compound.
# [2] = system: RSV Long (A); test: CPE inhibition assay in HEp-2 cells, RSV strain Long; format: cell-based, Respiratory syncytial virus; conditions: Table 12, CPE, once a day for two days
# Protocol: (§1) The CPE inhibition assay used in this study was performed as described by Sidwell and Huffman (Sidwell et al., 1971, Appl. Microbiol. 22:7979-7801) with slight modifications. Varying concentrations of test compounds were added to each plate containing near confluent cell monolayers (1×10^5 cells/well) followed immediately by the addition of virus at a multiplicity of infection (MOI)=0.01, and then incubated at 37° C. On the following day, the medium from each plate was removed and fresh compound added. The assay was stopped at the end of the sixth day when the virus cytopathic effect in the virus infected, untreated control cells affected all cells. All compounds were assayed for virus inhibition in quadruplicate and for cytotoxicity in duplicate. For each compound, two wells were set aside as uninfected, untreated cell controls per test and four wells per test received virus only and represented controls for virus replication. […] For all CPE-based assays, the 50% effective concentration (EC50) was calculated by regression analysis using the means of the CPE ratings at each concentration of compound.
# (§2) In this series, MP351 was added once a day for two days with fresh medium
# [3] = system: Hep-2 Cells; test: Neutral red uptake assay of cytotoxicity in HEp-2 cells; format: cell-based, human
# Protocol: (§3) Embryonic African green monkey kidney cells (MA-104) were obtained from BioWhittaker, Inc. (Walkersville, Md.). HEp-2 cells were propagated from a human epidermoid carcinoma of the larynx (American Type Culture Collection, ATCC; Rockville, Md.). The cells were grown in minimal essential medium. (MEM, Gibco-BRL, Gaitherburg, Md.) supplemented with 0.1% NaHCO3 and 10% fetal bovine serum (FBS, Hyclone Laboratories, Logan Utah.). When performing antiviral assays, serum was reduced to 2% and 50 μg/ml gentamicin (Sigma Chemical Company, St. Louis, Mo.) was added to the medium.
# (§4) This assay was performed by a modified method as described by Cavenaugh et al. (Cavenaugh et al. 1990, Invest. New Drugs 8:347-354). Briefly, medium was removed from each well of a plate scored for CPE from a CPE inhibition assay, 0.2 ml of neutral red (0.034% in PSS) was added to each of the wells of that plate and the plate incubated for 2 hr at 37° C. in the dark. The neutral red solution was removed from the wells and the wells rinsed twice with PBS (pH 7.4). Equal volumes (0.1 ml) of absolute ethanol and Sorenson citrate buffer (0.1 M sodium citrate, 0.1 M HCI, pH 4.2) were mixed together and added to each well. Plates were incubated in the dark for 30 min. at room temperature to solubilize the dye. The plates were then gently mixed on a 96-well plate adapted vortexer for 1 min. Absorbances at 540 nm and 450 nm were read with a microplate reader (Bio-Tek EL 1309; Bio-Tek Instruments, Inc. Winooski, Vt.). Absorbance values were expressed as percents of untreated controls and EC50 and IC50 values were calculated by regression analysis.
# [4] = system: Hep-2 Cells; test: Cytotoxicity by morphological changes in HEp-2 cells (CPE inhibition assay); format: cell-based, human
# Protocol: as §3
# (§5) Morphological changes due to compound cytotoxicity were graded on a scale of 0-5; grade 5 was defined as 100% cytotoxicity. The 50% cytotoxic dose (IC50 was calculated by regression analysis. A selective index (S.I.) was calculated for each compound [S.I.=(IC50)/(EC50 ].
# [5] = system: RSV strain A2; test: Neutral red uptake assay of CPE inhibition in HEp-2 cells; format: cell-based, Respiratory syncytial virus; conditions: read-out: EC50
# Protocol: as §4
# [6] = system: RSV strain A2; test: Virus yield reduction assay in HEp-2 cells; format: cell-based, Respiratory syncytial virus; conditions: compound added twice daily
# Protocol: EC50 & EC90 : concentration required to reduce virus (RSV strain
# Both compounds were added to the cells twice daily.
# [7] = system: MA-104 cells; test: Cytotoxicity graded by morphological change in MA-104 cells; format: cell-based, African green monkey
# Protocol: as §3, §5
# IC50 Conc. for 50% cytotoxicity grade by morphological change (microM)
# (§6) Determined in MA-104 cells, A2 strain RSV
# [8] = system: RSV CH18537 (B); test: Neutral red uptake assay in HEp-2 cells, RSV strain CH18537; format: cell-based, Respiratory syncytial virus; conditions: Table 12, neutral red, once a day for two days
# Protocol: as §4, §2
# [9] = system: RSV Long (A); test: Neutral red uptake assay in HEp-2 cells, RSV strain Long; format: cell-based, Respiratory syncytial virus; conditions: Table 12, neutral red, once a day for two days
# Protocol: as §4, §2
# [10] = system: RSV 393 (clinical isolate); test: CPE inhibition assay in HEp-2 cells, RSV 393; format: cell-based, Respiratory syncytial virus; conditions: Table 12, CPE, once a day for two days
# Protocol: as §1, §2
# [11] = system: A2 strain RSV; test: CPE inhibition assay in MA-104 cells; format: cell-based, Respiratory syncytial virus
# Protocol: as §1
# EC50 Concentration for 50% inhibition of virus replication (microM)
# as §6
# [12] = system: RSV CH18537 (B); test: CPE inhibition assay in HEp-2 cells, RSV strain CH18537; format: cell-based, Respiratory syncytial virus; conditions: Table 12, CPE, once a day for two days
# Protocol: as §1, §2
# [13] = system: RSV 393 (clinical isolate); test: Neutral red uptake assay in HEp-2 cells, RSV 393; format: cell-based, Respiratory syncytial virus; conditions: Table 12, neutral red, once a day for two days
# Protocol: as §4, §2
# [14] = system: RSV M2 RNA; test: RT-PCR of M2 RNA from RSV-infected 9HTE cells; format: cell-based, Respiratory syncytial virus; conditions: RNA at 8 h post-infection, M.O.I.=10
# Protocol: To determine if RSV RNA levels correlated with antiviral activity, RT-PCR analysis was performed on RNA isolated from RSV-infected and uninfected 9HTE cells with and without treatment with spA4 -antiRSV3'3'T/(8281-8299) or spA4 -antiRSV3'3'A/(8530-8547). An M2 RNA sequence in RSV (from nucleotides 7879 to 8465) was converted to cDNA and amplified by PCR. M2 RNA from the RSV-infected cells produced an RT-PCR DNA product that was clearly visible. […] Levels of GAPDH transcripts were similar in all of these RNA preparations.
# RNA was collected from 2×10^5 9HTE cells at 8 h post-infection (M.O.I.=10) by RNAzol treatment as described by the manufacturer (Tel-Test, Inc, Freindswood, Tex.). RNA was isolated after 8 h to limit RSV replication to a single cycle. Isolated RNA (≈1 μg) was incubated with 100 pmoles of the appropriate downstream (-) primer listed below or 100 pmoles of random hexamer (used for glyceraldehyde-3-phosphatedehydrogenase, GAPDH, mRNA only). RNA and primers were heated to 70° C. for 10 min then cooled rapidly on ice for 5 min. […]
# 25 μl Hot-Start upper buffer contained 5 U Taq DNA polymerase (GibcoBRL) and 1/10th of the cDNA from the RT reaction. […] Aliquots of the RT/PCR mixtures were analyzed on 1% agarose/TBE gels.
# [15] = Table 11, neutral red, q.d. 3 days, HEp2
# [16] = MA-104 cells (Table 8), read-out: IC50 Conc. for 50% cytotoxicity grade by morphological change
# [17] = MA-104 cells, A2 strain RSV (Table 8), read-out: EC50 Concentration for 50% inhibition of virus replication
# [18] = Table 8, text says HEP-2 cells, read-out: IC50 (toxicity)
# [19] = Table 8, text says HEP-2 cells, read-out: EC50 (inhibition of RSV replication)
substance,measurement,setting,value
2-5A-L2-AsAsAsAATGGGGCAAAsTsAsA [MP351],pEC50,[1],7.40
same,pEC50,[2],6.52
same,pIC50,"[3]; Table 11, neutral red, B.I.D. 2 days, HEp2",5.49
same,pIC50,"[3]; Table 11, neutral red, B.I.D. 3 days, HEp2",< 5.49
same,pIC50,"[3]; Table 11, neutral red, B.I.D. 4 days, HEp2",5.49
same,pIC50,"[3]; Table 11, neutral red, q.d. 1 day (added along with virus, never replenished), HEp2",< 5.49
same,pIC50,[3]; [15],5.70
same,pIC50,"[3]; Table 11, neutral red, q.d. 4 days, HEp2",< 5.49
same,pIC50,"[3]; Table 12, neutral red, test with 393 (clinical isolate), HEp-2",< 5.49
same,pIC50,"[3]; Table 12, neutral red, test with CH18537 (B), HEp-2",5.62
same,pIC50,"[3]; Table 12, neutral red, test with Long (A), HEp-2",5.70
same,pIC50,"[3]; Table 13, neutral red, q.d., Day 0, HEp-2",< 5.49
same,pIC50,"[3]; Table 13, neutral red, q.d., Day 1, HEp-2",< 5.49
same,pIC50,"[3]; Table 13, neutral red, q.d., Day 2, HEp-2",5.66
same,pIC50,"[4]; Table 10, CPE, B.I.D. 2 days, HEp2",< 5.49
same,pIC50,"[4]; Table 10, CPE, B.I.D. 3 days, HEp2",< 5.49
same,pIC50,"[4]; Table 10, CPE, B.I.D. 4 days, HEp2",5.49
same,pIC50,"[4]; Table 10, CPE, q.d. 1 day (added along with virus, never replenished), HEp2",< 5.49
same,pIC50,"[4]; Table 10, CPE, q.d. 3 days, HEp2",< 5.49
same,pIC50,"[4]; Table 10, CPE, q.d. 4 days, HEp2",< 5.49
same,pIC50,"[4]; Table 12, CPE, test with 393 (clinical isolate), HEp-2",< 5.49
same,pIC50,"[4]; Table 12, CPE, test with CH18537 (B), HEp-2",< 5.49
same,pIC50,"[4]; Table 12, CPE, test with Long (A), HEp-2",< 5.49
same,pIC50,"[4]; Table 13, CPE, q.d., Day 0, HEp-2",< 5.49
same,pIC50,"[4]; Table 13, CPE, q.d., Day 1, HEp-2",< 5.49
same,pIC50,"[4]; Table 13, CPE, q.d., Day 2, HEp-2",5.66
same,pEC50,[5]; [15],7.30
same,pEC50,"[5]; Table 13, neutral red, q.d., fresh compound up to Day 1 post infection, HEp-2",6.49
same,pEC50,[6]; virus yield reduced by 50%,6.49
same,EC90,[6]; virus yield reduced by 90%,1 µM
same,pIC50,[7]; [16],< 5.00
same,pEC50,[8],7.00
same,pEC50,[9],6.40
same,pEC50,[10],6.52
same,pEC50,"[11]; MA104 cells, CPE assay, added once or once daily for 2 days, read-out: EC50",6.00
same,pEC50,[11]; [17],6.52
same,pEC50,[12],7.00
same,pEC50,[13],5.80
"AsAsAsAATGGGGCAAAsTsAsA (AAAAATGGGGCAAATAA; antisense; DNA, linkages s3 o10 s3 (s phosphorothioate, o phosphodiester), methylation of C not given here) [MP320, gapmer antisense oligonucleotide, three thiophosphorylated linkages at both termini]",pIC50,[7]; [16],< 5.00
same,pEC50,[11]; [17],5.00
"AsAsAsAsAsTsGsGsGsGsCsAsAsAsTsAsA (AAAAATGGGGCAAATAA; antisense; DNA, all phosphorothioate, methylation of C not given here) [MP273]",pIC50,[7]; [16],< 5.00
same,pIC50,[7]; [18],< 5.00
same,pEC50,[11]; [17],5.52
same,pEC50,[11]; [19],5.52
"AsTsAsAsGsGsGsGsAsAsCsAsTsAsAsAsA (ATAAGGGGAACATAAAA; antisense; DNA, all phosphorothioate, methylation of C not given here) [MP317, control all PS oligonucleotide that still contained the G quartet motif but otherwise scrambled]",pIC50,[7]; [16],5.30
same,pIC50,[7]; [18],5.30
same,pEC50,[11]; [17],6.00
same,pEC50,[11]; [19],6.00
"GsAsAsGsAsCsAsGsAsAsTsAsAsGsAsTsA (GAAGACAGAATAAGATA; antisense; DNA, all phosphorothioate, methylation of C not given here) [MP318]",pIC50,[7]; [16],5.10
same,pIC50,[7]; [18],5.10
same,pEC50,[11]; [17],5.00
same,pEC50,[11]; [19],5.00
spA2'p(A2'p)3 -[(Bu)p]2 -(5'cta tcg gtt aga taa ac3'-3'a5') [spA4-antiRSV3'-3'A/(8530-8547)],inhibition of levels of M2 RNA,[14],17%
